Columns and labels:
[1] = Inhibition of reverse transcriptase at 1 mg/ml; parameters: scale not given: the % may be the effect or the level left
Streptococcus pyogenes [2] = test: Antimicrobial activity against Streptococcus pyogenes at 10 ug/disk; assay type: functional, organism-based
Staphylococcus aureus = test: Antimicrobial activity against Staphylococcus aureus at 100 ug/disk; assay type: functional; settings: read-out: IZ
[3] = test system: Nippostrongylus brasiliensis; test: Antihelminthic activity against Nippostrongylus brasiliensis 4 instar larvae assessed as reduction in viability at 50 ug/mL; assay type: functional
Candida albicans [4] = test: Antimicrobial activity against Candida albicans at 100 ug/disk; assay type: functional; settings: read-out: IZ
[5] = test system: Nippostrongylus brasiliensis; test: Antihelminthic activity against Nippostrongylus brasiliensis 4 instar larvae assessed as reduction in motility at 50 ug/mL; assay type: functional; parameters: scale not given: the % may be the effect or the level left
Escherichia coli = test: Antimicrobial activity against Escherichia coli at 100 ug/disk; assay type: functional; settings: read-out: IZ
[6] = test system: Trichophyton mentagrophytes; test: Antimicrobial activity against Trichophyton mentagrophytes at 100 ug/disk; assay type: functional; settings: read-out: IZ
Streptococcus pyogenes [7] = test: Antimicrobial activity against Streptococcus pyogenes at 100 ug/disk; assay type: functional; settings: read-out: IZ
[8] = test system: Nippostrongylus brasiliensis; test: Antihelminthic activity against Nippostrongylus brasiliensis 4 instar larvae assessed as reduction in cast formation at 50 ug/mL; assay type: functional; parameters: scale not given: the % may be the effect or the level left
Candida albicans [9] = test: Antimicrobial activity against Candida albicans at 10 ug/disk; settings: read-out: IZ
[10] = test system: Trichophyton mentagrophytes; test: Antimicrobial activity against Trichophyton mentagrophytes at 10 ug/disk; assay type: functional; settings: read-out: IZ

Q: With `CCCCCCCCCCC[C@@H](O)[C@H](C)N` (relative stereo) as the compound, how does the Activity [1] read?
A: The Activity was 95%.

Q: Which inhibition zone (IZ) (Streptococcus pyogenes [2]) does the source give for GENTAMICIN here?
A: The inhibition zone (IZ) was 10 mm.

Q: What does the source list for `CC/C=C/CCCCCCC[C@@H](O)[C@H](C)N` (relative stereo) [XETOAMINOL A]?
A: zone of inhibition at 100 µg/disc (Staphylococcus aureus): 3 mm; Activity [3]: 100%; zone of inhibition at 100 µg/disc (Candida albicans [4]): 7 mm; Activity [5]: 100%; zone of inhibition at 100 µg/disc (Escherichia coli): 7 mm; Activity [1]: 97%; zone of inhibition at 100 µg/disc [6]: 13 mm; zone of inhibition at 100 µg/disc (Streptococcus pyogenes [7]): 4 mm; Activity [8]: 90%

Q: With `Clc1ccc(COC(Cn2ccnc2)c2ccc(Cl)cc2Cl)c(Cl)c1` (stereo not drawn) [MICONAZOLE] as the compound, how does the zone of inhibition at 10 µg/disc (Candida albicans [9]) read?
A: Its zone of inhibition at 10 µg/disc is 10 mm.

Q: What about the zone of inhibition at 10 µg/disc [10] of the same compound?
A: Its zone of inhibition at 10 µg/disc is 11 mm.
